According to US4670542A, “New antibiotics, preparation and use of and intermediates therefor” (Bayer Aktiengesellschaft, priority 1983, dated 1987):
Starred links: 1 amine or outer side, 2 acyl side, 3 side chain; linkers in the order of their positions; H or OH if unused. Non-standard residues stand in square brackets, D forms with d. Residues, ends and D or L forms follow the SMILES beside them. ξ: configuration not given here. X1 = Cn1c(=NC(N)=O)ccn(C2SC(C(O)C(N[*:1])C(=O)[*:2])C(O)C2O)c1=O; Orn(N5-OH,N5-Ac) = CC(=O)N(O)CCC[C@H](N)C(=O)O; ξT = CC(O)C(N)C(=O)O; ξA = CC(N)C(=O)O

How the values were obtained:
Assay in all cases: Hole test, inhibiting areola diameter, medium DST agar
Assay type in all cases: cell-based
E. coli T 7 = tested on: E. coli T 7; design: unit not given here
Source text: (§1) Activity against the germs listed below is found in vitro, on the basis of the diameter of the inhibiting areola.

E. coli 14 = tested on: E. coli 14
Source text: as §1

Klebs. 57 USA = conditions: 100 ug/ml
Source text: as §1

Prot. 1017 = conditions: 1000 ug/ml
Source text: as §1

Staph. 133 = conditions: 1000 ug/ml
Source text: as §1

SMILES	Inhibiting areola diameter E. coli T 7 (E. coli T 7; 10 ug/ml)	Inhibiting areola diameter E. coli T 7 (E. coli T 7; 100 ug/ml)	Inhibiting areola diameter E. coli 14 (E. coli 14; 10 ug/ml)	Inhibiting areola diameter E. coli 14 (E. coli 14; 100 ug/ml)	Inhibiting areola diameter Klebs. 57 USA (Klebs. 57 USA)	Inhibiting areola diameter E. coli T 7 (E. coli T 7; 1000 ug/ml)	Inhibiting areola diameter E. coli 14 (E. coli 14; 1000 ug/ml)	Inhibiting areola diameter Prot. 1017 (Prot. 1017)	Inhibiting areola diameter Staph. 133 (Staph. 133)
CC(=O)N(O)CCC[C@H](NC(=O)[C@H](CCCN(O)C(C)=O)NC(=O)[C@@H](N)CCCN(O)C(C)=O)C(=O)NC(C)C(=O)NC(C(=O)O)C(O)C1SC(n2ccc(=NC(N)=O)n(C)c2=O)C(O)C1O (some centres unmarked) [Compound 9, Peptidyl-nucleoside] (H-[Orn(N5-OH,N5-Ac)][Orn(N5-OH,N5-Ac)][Orn(N5-OH,N5-Ac)][ξA][X1]-OH)	28	34	30	34					
CC(=O)N(O)CCC[C@H](N)C(=O)NC(C(=O)O)C(O)C1SC(n2ccc(=NC(N)=O)n(C)c2=O)C(O)C1O (some centres unmarked) [Compound 11]	13	18		13	18				
CC(=O)N(O)CCC[C@H](NC(=O)[C@H](CCCN(O)C(C)=O)NC(=O)[C@@H](N)CCCN(O)C(C)=O)C(=O)NC(C(=O)O)C(O)C1SC(n2ccc(=NC(N)=O)n(C)c2=O)C(O)C1O (some centres unmarked) [Compound 13]						19	20	20	
CC(=O)N(O)CCC[C@H](NC(=O)[C@H](CCCN(O)C(C)=O)NC(=O)[C@@H](N)CCCN(O)C(C)=O)C(=O)NC(C(=O)NC(C(=O)O)C(O)C1SC(n2ccc(=NC(N)=O)n(C)c2=O)C(O)C1O)C(C)O (some centres unmarked) [Compound 20] (H-[Orn(N5-OH,N5-Ac)][Orn(N5-OH,N5-Ac)][Orn(N5-OH,N5-Ac)][ξT][X1]-OH)		14		13		15	14	17	25
CC(=O)N(O)CCC[C@H](NC(=O)[C@H](CCCN(O)C(C)=O)NC(=O)[C@@H](N)CCCN(O)C(C)=O)C(=O)NC(C(=O)O)C(O)C1SC(n2ccc(=O)n(C)c2=O)C(O)C1O (some centres unmarked) [Compound 24]		18					18	18	
